In patent publication US20110091375A1, “USE OF THE COMBINATION COMPRISING TEMOZOLOMIDE AND TNF-ALPHA FOR TREATING GLIOBLASTOMA” (THE UNIVERSITY OF CHICAGO, priority 2004, published 2011):
Entries after “also recorded” stand apart in the source; their conditions may differ.

Experiments:
U87 cells = assay: Flow cytometric analysis of apoptosis (fractional DNA content, annexin V binding); assay type: cell-based, human; settings: fractional DNA content, TMZ 100 μM
Method: Fractional DNA content: U87 cells (10^5) were plated overnight at 37° C. with 5% CO2. The cells were then treated with TNFα (10 ng/mL) and/or TMZ (100 μM). At 72 h the cells were washed in PBS and fixed in ice-cold 70% (v/v) ethanol. The cells were washed twice and incubated in RNase (1 mg/mL) for 30 m at 37° C., then incubated in propidium iodide (PI) solution (100 ug/mL) for […] at 4° C. Flow cytometric analysis was performed on a FACSort instrument (Becton Dickinson Immunocytometry Systems, San Jose, Calif.), and the data were analyzed using the CellQuest software (Becton Dickinson).
Annexin V binding (van Engeland, M. et al. (1998) Cytometry 31(1):1-9): At 72 h cells were washed in PBS and incubated in the dark for 15 m with binding buffer containing 5 μl of Annexin V-FITC and 5 μl of PI (Annexin V-FITC apoptosis detection kit II). The data was analyzed by Flowjo analysis software (Tree Star Inc., Ashland, Oreg.).
Cells were either un-transfected or co-transfected with pRC-CMV-p65 or pRC-CMV in the presence of a GFP plasmid at a ratio of 4:1. Under these conditions, cells expressing GFP also expressed the co-transfected plasmid (Tang, F. et al. (2002) Mol Cell Biol 22:8571-8579). Cells were then left untreated or treated as described in the figure legends. At 72 h cells were washed in PBS and incubated in the dark for 15 m with binding buffer containing 5 μl of Annexin V-FITC and 5 μl of Propidium iodide (PI). In transfected cells, annexin V binding was assessed in GFP positive cells. Data was analyzed by Flowjo analysis software (Tree Star Inc., Ashland, Oreg., USA) as described in U.S. Provisional Application No. 60/604,251 (Yamini, B. et al. (2004) Cancer Res 64:6381-6384).

U87 hindlimb xenografts [1] = assay: Hindlimb glioma xenograft tumor growth; assay type: in vivo, nude mice; settings: 30 days following treatment, second hindlimb study
Method: Hindlimb Studies: U87 hindlimb xenografts were established as described above in Example 4. In one study, mice were randomized into four groups as described in Example 4 and treatment initiated (day 0). Ad.Egr-TNF (2×10^8 pu) was injected IT twice a week for 4 total injections, and 5 mg/kg TMZ was given IP 3 h after each vector injection for a total of 20 mg/kg. The dose of TMZ used was approximately 0.2 LD10 and was chosen to have modest anti-tumor effect but to not be curative based on previous studies (Friedman, H. S. et al. (1995) Cancer Res 55(13):2853-2857) and data from our lab showing LD50 for IP TMZ to be approximately 500 mg/kg. Tumor volume was measured every 2-3 days. Fractional tumor volume (V/V0 where V0=volume on day 0) was calculated and plotted.
In a second study, tumor-bearing mice were randomized into eight treatment groups: untreated control (UTC); intratumoral (IT) Ad.Egr-TNF alone; intraperitoneal (IP) TMZ alone; IR alone; Ad.Egr-TNF and TMZ; Ad.Egr-TNF and IR; TMZ and IR; and Ad.Egr-TNF, TMZ and IR. Ad.Egr-TNF was administered IT at a dose of 2×10^8 pu/10 μL twice a week for 2 weeks, IP TMZ was given 3 h after vector at 5 mg/kg to a total of 20 mg/kg. […] Xenografts were measured twice a week using calipers, tumor volume was calculated, and fractional tumor volumes (V/V0 where V0=volume on day 0) were plotted.

[2] = system: NF-κB in U87 glioma cells; assay: NF-κB-responsive luciferase reporter assay, U87; assay type: cell-based, human
Method: U87 cells (5×10^3) were plated overnight and subsequently co-transfected with Ig-κB-Luc (or pE425 GL3) and the Renilla reniformis expression vector, pRL-TK, to normalize transfection efficiency, at a ratio of 10:1 using SuperFectin transfection kit (Qiagen, Valencia, Calif., USA). Twenty-four hours after transfection, the cells were pretreated with TMZ (100 μM) for 16 h, then treated with TNFα (10 ng/mL). Five hours later NF-κB (or Egr-1) and Renilla luciferase activity were measured with the Dual-Luciferase reporter assay system (Promega Corp., Madison, Wis., USA). Relative luciferase was calculated as the ratio of firefly luminescence/Renilla luminescence for each sample.

NF-κB in glioma cells = assay: IR- and TNFα-induced NF-κB activity and nuclear translocation; assay type: cell-based; settings: co-treatment with TNFα and IR
U87 hindlimb xenografts [3] = assay: TNFα induction in vivo in hindlimb xenografts; design: species or system nude mice
Method: U87 cells (5×10^6) in […] were injected subcutaneously (sc) into the right hindlimb of nude mice. When tumors reached an average size of 200 mm^3 (length×width×thickness/2), the tumor-bearing mice were randomized into 4 groups: 1. Untreated Control (UTC); 2. Ad.Egr-TNF alone; 3. TMZ alone; 4. Ad.Egr-TNF and TMZ. Ad.Egr-TNF was injected intratumorally (IT) at a dose of 2×10^8 particle units (pu) each day. Two doses of TMZ were given: 2.5 mg/kg/day and 5 mg/kg/day by intraperitoneal (IP) injection 3 h after vector. Four consecutive daily IT and IP injections were given, control animals received IT and IP serum free medium (SFM). Animals were euthanized on day 2 and 4 (i.e., 48 h and 96 h after treatment initiation), tumors harvested, snap-frozen in liquid nitrogen and homogenized in RIPA buffer (150 mM NaCl, 10 mM Tris at pH 7.5, 5 mM EDTA at pH 7.5, […], 1 μg/mL leupeptin, and 2 μg/mL aprotinin). Protein was isolated and concentration measured using Protein Assay reagent (Bio-Rad Laboratories, Hercules, Calif.). TNFα levels in the supernatants were measured as described above.

[4] = system: NF-κB in BxPC-3 pancreatic cancer cells; assay: NF-κB-responsive luciferase reporter assay, BxPC-3; assay type: cell-based, human
[5] = system: NF-κB in Seg-1 esophageal cancer cells; assay: NF-κB-responsive luciferase reporter assay, Seg-1; assay type: cell-based, human

## Cn1nnc2c(C(N)=O)ncn2c1=O [TMZ, temozolomide]
U87 cells
  cell cycle distribution: increase in the percentage of cells in G2/M phase
U87 hindlimb xenografts [1]
  animals with complete disappearance of palpable tumor: 1/10
[2]; U87, TMZ pre-treatment
  TNFα-induced NF-κB transcriptional activity: dose dependent inhibition; also recorded: completely inhibited
[2]; glioma cells, no TNFα
  transcriptional activity of NF-κB, TMZ used alone: slightly increases
NF-κB in glioma cells
  NF-κB transcriptional activity and nuclear translocation increased by TNFα and IR: inhibited
U87 hindlimb xenografts [3]
  TNF detection in vivo: No TNF was detected
[4]
  TNFα-induced NF-κB transcriptional activity: activated
[5]
  TNFα-induced NF-κB transcriptional activity: activated
